Reference: paper PMC11181328 (Journal of Medicinal Chemistry, 2024)
Structures can show the parent of a compound that is named as a salt. Where two headings read alike, the source gives them in different places.

Legend:
male Swiss Webster mice = assay: Warm-water tail immersion assay, agonism (single dose screen and potency); format: in vivo, mouse; conditions: for antinociception compared to the vehicle group / percent MPE: single dose 10 mg/kg s.c.; for antinociception compared to the vehicle group: 20 min; for ED50: Mus musculus, sc, read-out: potency ED50 [95% CI] mg/kg, s.c., 20 min prior to tail withdrawal latency measurement, male Swiss Webster mice; for percent MPE: withdrawal latency 20 min after administration
DOR [1] = target: T1, DOR (Homo sapiens, UniProt P41143); assay: Competitive radioligand binding assay, DOR
T1 construct: expressed in transfected cells; membrane homogenate

MOR [2] = target: T2, MOR (Mus musculus, UniProt P42866); assay: Competitive radioligand binding assay, MOR; set-up: expressed in transfected cells; membrane homogenate
MOR [3] = target: T2, MOR; assay: [35S]-GTPγS functional assay, MOR; format: biochemical; set-up: expressed in transfected cells; membrane homogenate; conditions: for Emax: read-out: [35S]-GTPγS functional activity MOR Emax (%)
DOR [4] = target: T1, DOR; assay: [35S]-GTPγS functional assay, DOR; format: biochemical; conditions: for EC50: hDOR-CHO membranes; for Emax: percent of SNC80 full agonist control
KOR [5] = target: T3, KOR (Mus musculus, UniProt P33534); assay: Competitive radioligand binding assay, KOR; conditions: for selectivity ratio δ/κ / selectivity ratio μ/κ: ratio of Ki values; for radioligand binding affinity (Ki, nM) KOR: [3H]diprenorphine, mKOR-CHO membranes
T3 construct: expressed in transfected cells; membrane homogenate

KOR [6] = target: T3, KOR; assay: [35S]-GTPγS functional assay, KOR; format: biochemical; conditions: for EC50: mKOR-CHO membranes; for Emax: percent of U50,488 full agonist control
[7] = [3H]naloxone, mMOR-CHO membranes

SMILES | antinociception compared to the vehicle group (male Swiss Webster mice) | Ki (DOR [1]) [nM] | Ki (MOR [2]) [nM] | EC50 (MOR [3]; mMOR-CHO membranes) [nM] | Emax (MOR [3]) [%] | EC50 (DOR [4]) [nM] | Emax (DOR [4]) [%] | Ki (KOR [5]) [nM] | selectivity ratio δ/κ (KOR [5]) | selectivity ratio μ/κ (KOR [5]) | EC50 (KOR [6]) [nM] | Emax (KOR [6]) [%] | radioligand binding affinity (Ki, nM) MOR (MOR [2]; [7]) | further results
O=C(CCc1ccco1)N[C@H]1CC[C@@]2(O)[C@H]3Cc4cccc5c4[C@@]2(CCN3CC2CC2)[C@H]1O5 [Compound 10, 17-Cyclopropylmethyl-4,5α-epoxy-6α-[3′-(furan-2″-yl)propanamido]-14β-hydroxymorphinan Hydrochloride] | lack of significant antinociceptive effect | 90.2 ± 13 | 53.1 ± 6.06 | 278 ± 107 | 10.2 ± 1.33 | 348 ± 40.2 | > 80 | 73.8 ± 12.2 | 1 | 1 | 442 ± 29.9 | 86.5 ± 1.55 |  | Selectivity Ratio DOR/KOR (KOR [5]; supplement csv): 1; Selectivity Ratio MOR/KOR (KOR [5]; supplement csv): 1
CN(C(=O)CCc1ccco1)[C@@H]1CC[C@@]2(O)[C@H]3Cc4cccc5c4[C@@]2(CCN3CC2CC2)[C@H]1O5 [Compound 11, 17-Cyclopropylmethyl-4,5α-epoxy-6β-[3′-(furan-2″-yl)-N-methylpropanamido]-14β-hydroxymorphinan Hydrochloride] | lack of significant antinociceptive effect | 532 ± 92.5 | 93.6 ± 10.4 | 5620 ± 2130 | 22.9 ± 2.39 | 1100 ± 108 | 61.7 ± 4.27 | 50.4 ± 6.84 | 11 | 2 | 146 ± 27.1 | 109 ± 5.9 |  | 
O=C(CCc1ccco1)N[C@@H]1CC[C@@]2(O)[C@H]3Cc4cccc5c4[C@@]2(CCN3CC2CC2)[C@H]1O5 [Compound 12, 17-Cyclopropylmethyl-4,5α-epoxy-6β-[3′-(furan-2″-yl)propanamido]-14β-hydroxymorphinan Hydrochloride] | lack of significant antinociceptive effect | 800 ± 96.7 | 27.5 ± 2.9 | 104 ± 24.2 | 10.8 ± 1.13 | 2400 ± 200 | 71 ± 6.1 | 23.6 ± 3.79 | 34 | 1 | 368 ± 31.8 | 86.83 ± 0.69 |  | 
CN(C(=O)CCc1ccco1)[C@H]1CC[C@@]2(O)[C@H]3Cc4ccc(O)c5c4[C@@]2(CCN3CC2CC2)[C@H]1O5 [Compound 13, 17-Cyclopropylmethyl-3,14β-dihydroxy-4,5α-epoxy-6α-[3′-(furan-2″-yl)-N-methylpropanamido]morphinan Hydrochloride] |  | 0.37 ± 0.07 | 0.15 ± 0.01 | 0.31 ± 0.04 | 15.3 ± 1.08 | 0.66 ± 0.06 | 63.1 ± 2.6 | 0.12 ± 0.02 |  |  | 0.04 ± 0.01 | 101 ± 2.5 | subnanomolar | ED50 (male Swiss Webster mice): 0.123 mg/kg; percent MPE (male Swiss Webster mice): ≥ 80%; radioligand binding affinity (Ki, nM) DOR (DOR [1]; [3H]diprenorphine, hDOR-CHO membranes): subnanomolar; radioligand binding affinity (Ki, nM) KOR (KOR [5]): subnanomolar
Cl.O=C(CCc1ccco1)N[C@H]1CC[C@@]2(O)[C@H]3Cc4ccc(O)c5c4[C@@]2(CCN3CC2CC2)[C@H]1O5 [Compound 14, 17-Cyclopropylmethyl-3,14β-dihydroxy-4,5α-epoxy-6α-[3′-(furan-2″-yl)propanamido]morphinan Hydrochloride] | lack of significant antinociceptive effect |  |  |  | 21.8 ± 2.76 | 3.55 ± 0.77 |  |  |  |  | 5.22 ± 0.79 |  | subnanomolar | Ki (MOR [2]; [3H]naloxone, mMOR-CHO membranes, read-out: radioligand binding affinity (Ki, nM) MOR): 0.72 ± 0.1 nM; EC50 (MOR [3]; supplement csv): 2.77 ± 0.73 nM
CN(C(=O)CCc1ccco1)[C@@H]1CC[C@@]2(O)[C@H]3Cc4ccc(O)c5c4[C@@]2(CCN3CC2CC2)[C@H]1O5 [Compound 15, 17-Cyclopropylmethyl-3,14β-dihydroxy-4,5α-epoxy-6β-[3′-(furan-2″-yl)-N-methylpropanamido]morphinan Hydrochloride] |  | 7.32 ± 1.08 | 0.66 ± 0.05 | 3.58 ± 0.59 | 15.3 ± 0.5 | 16.9 ± 2.57 | 38.6 ± 1.37 | 0.32 ± 0.03 |  |  | 1.48 ± 0.17 | 100.7 ± 1 | subnanomolar | ED50 (male Swiss Webster mice): 0.251 mg/kg; percent MPE (male Swiss Webster mice): ≥ 80%; radioligand binding affinity (Ki, nM) KOR (KOR [5]): subnanomolar
CN(C(=O)/C=C/c1ccco1)[C@@H]1CC[C@@]2(O)[C@H]3Cc4cccc5c4[C@@]2(CCN3CC2CC2)[C@H]1O5 [Compound 19, 17-Cyclopropylmethyl-4,5α-epoxy-6β-[(2E)-3′-(furan-2″-yl)-N-methylprop-2-enamido]-14β-hydroxymorphinan Hydrochloride] |  | 2260 ± 338 | 215 ± 26.5 | 888 ± 363 | 11 ± 0.68 | 5980 ± 581 | > 80 | 4.11 ± 0.57 | 551 | 52 | 53.9 ± 3.33 | 96.9 ± 8.02 |  | 
